The text below walks through data of BindingDB's records for doi:10.1016/j.bioorg.2016.10.003 (Indian Institute of Technology (Banaras Hindu University), 2016).

The experiment deals with T1, Prostaglandin G/H synthase 1 (Ovis aries, UniProt P05979).
T1 sequence (P05979 whole entry): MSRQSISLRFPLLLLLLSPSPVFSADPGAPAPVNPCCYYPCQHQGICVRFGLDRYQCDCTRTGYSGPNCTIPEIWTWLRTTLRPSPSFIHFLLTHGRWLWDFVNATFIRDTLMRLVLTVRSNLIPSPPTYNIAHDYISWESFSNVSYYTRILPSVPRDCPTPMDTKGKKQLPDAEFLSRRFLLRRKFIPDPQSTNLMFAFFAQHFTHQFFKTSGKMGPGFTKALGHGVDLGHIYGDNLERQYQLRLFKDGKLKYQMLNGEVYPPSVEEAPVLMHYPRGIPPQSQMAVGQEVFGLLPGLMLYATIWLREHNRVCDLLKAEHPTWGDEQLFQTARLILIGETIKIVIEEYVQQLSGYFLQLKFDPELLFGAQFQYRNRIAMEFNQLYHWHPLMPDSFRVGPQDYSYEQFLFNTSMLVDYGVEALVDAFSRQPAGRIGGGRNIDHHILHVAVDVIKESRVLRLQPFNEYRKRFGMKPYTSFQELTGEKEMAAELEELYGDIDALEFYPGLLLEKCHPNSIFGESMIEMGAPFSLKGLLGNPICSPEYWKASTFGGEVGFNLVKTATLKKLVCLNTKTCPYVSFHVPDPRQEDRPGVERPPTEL
In words: In vitro COX Inhibition Assay. As for the experimental part: The peroxidase activity is assayed colorimetrically by monitoring the appearance of oxidised N,N,N',N'-tetramethyl-p-phenylenediamine (TMPD) at 590 nm.
As for `O=c1nc(-c2ccccc2)c(-c2ccccc2)nn1Cc1nnc(Nc2ccc(Cl)cc2)o1` [2-((5-(4-Chlorophenylamino)-1,3,4-oxadiazol-2-yl)methyl)-5,6-diphenyl-1,2,4-triazin-3(2H)-one (3d)], the midpoint of inhibition, the IC50, lay at 64.5 µM.
For `O=c1nc(-c2ccccc2)c(-c2ccccc2)nn1Cc1nnc(Nc2ccc([N+](=O)[O-])cc2)o1` [2-((5-(4-Nitrophenylamino)-1,3,4-oxadiazol-2-yl)methyl)-5,6-diphenyl-1,2,4-triazin-3(2H)-one (3e)] the value was 62.4 µM; for `COc1ccc(Nc2nnc(Cn3nc(-c4ccccc4)c(-c4ccccc4)nc3=O)s2)cc1` [2-((5-(4-Methoxyphenylamino)-1,3,4-thiadiazol-2-yl)methyl)-5,6-diphenyl-1,2,4-triazin-3(2H)-one (4c)], 60.1 µM.
On to `COc1ccc(Nc2nnc(Cn3nc(-c4ccccc4)c(-c4ccccc4)nc3=O)o2)cc1` [2-((5-(4-Methoxyphenylamino)-1,3,4-oxadiazol-2-yl)methyl)-5,6-diphenyl-1,2,4-triazin-3(2H)-one (3c)], for which the IC50 (commonly the concentration at which inhibition is half-maximal) came to 60.5 µM.
Take `O=c1nc(-c2ccccc2)c(-c2ccccc2)nn1Cc1nnc(Nc2ccc([N+](=O)[O-])cc2)s1` [2-((5-(4-Nitrophenylamino)-1,3,4-thiadiazol-2-yl)methyl)-5,6-diphenyl-1,2,4-triazin-3(2H)-one (4e)]: the IC50 was determined as 63.2 µM.
Consider `O=c1nc(-c2ccccc2)c(-c2ccccc2)nn1Cc1nnc(Nc2ccc(Cl)cc2)s1` [2-((5-(4-Chlorophenylamino)-1,3,4-thiadiazol-2-yl)methyl)-5,6-diphenyl-1,2,4-triazin-3(2H)-one (4d)], for which the concentration for half-maximal inhibition (IC50) turned out to be 62.2 µM.
